Assay results as given in BindingDB's records for doi:10.1021/jm980334n (University of New Mexico School of Medicine, 1998).

target: L-lactate dehydrogenase (Plasmodium falciparum) (UniProt Q27743); experiment: inhibitory activity against Plasmodium falciparum LDH (pLDH)

| Compound | Ki [µM] |
| --- | --- |
| Cc1cc2c(C)c(O)c(O)c(C(=O)O)c2cc1C [2,3-Dihydroxy-4,6,7-trimethyl-naphthalene-1-carboxylic acid] | 13 |
| Cc1ccc2c(C(=O)O)c(O)c(O)c(C)c2c1 [2,3-Dihydroxy-4,6-dimethyl-naphthalene-1-carboxylic acid] | 22 |
| Cc1cc2c(C(=O)O)c(O)c(O)c(C(C)C)c2cc1C [2,3-Dihydroxy-4-isopropyl-6,7-dimethyl-naphthalene-1-carboxylic acid] | 1 |
| Cc1cc2c(C(C)C)c(O)c(O)c(C(=O)O)c2cc1Cc1ccc(C(F)(F)F)cc1 [2,3-Dihydroxy-4-isopropyl-6-methyl-7-(4-trifluoromethyl-benzyl)-naphthalene-1-carboxylic acid] | 0.2 |
| Cc1ccc2c(C(=O)O)c(O)c(O)c(C(C)C)c2c1 [2,3-Dihydroxy-4-isopropyl-6-methyl-naphthalene-1-carboxylic acid] | 2 |
| CCCc1c(O)c(O)c(C(=O)O)c2ccc(C)cc12 [2,3-Dihydroxy-6-methyl-4-propyl-naphthalene-1-carboxylic acid] | 6 |
| Cc1cc2c(C)c(O)c(O)c(C(=O)O)c2cc1Cc1ccccc1 [7-Benzyl-2,3-dihydroxy-4,6-dimethyl-naphthalene-1-carboxylic acid] | 8 |
| Cc1cc2c(C(C)C)c(O)c(O)c(C(=O)O)c2cc1Cc1ccccc1 [7-Benzyl-2,3-dihydroxy-4-isopropyl-6-methyl-naphthalene-1-carboxylic acid] | 0.7 |
